For the assay, the system named is CEM cells HIV-1 protection, formazan growth assay. Description: NCI AIDS Antiviral Assay. The note with it: for IC50: measured here: growth of uninfected CEM cells. In outline: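 Human CEM cells, uninfected and HIV-1-infected, exposed to five drug concentrations; growth measured by soluble formazan assay and scored as percent protection from infection, with protecting compounds retested.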

Several values for one entry are separate records, joined by “and”; a condition that tells them apart may be missing. Equal entries are not always repeated. Activity calls are given as the source filed them.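 The calls were made as follows: active = compounds giving half or more protection of infected cells from virus-caused growth loss, again on retest; inactive = the rest.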 Where a SMILES comes first, the peptide text is derived from it. The star is where a group is joined. Boc = CC(C)(C)OC(=O)*; OBn = c1ccc(CO*)cc1

As usually defined, the EC50 is the concentration giving half of the maximal effect. The IC50 is the concentration needed to halve the response being measured. Read a high IC50 as lower potency.

As to `Cc1nc2c(nc1C)C(=O)C(Br)=CC2=O`, the result was inactive.
On to `CC1(C)O[C@]2(C=C[C@@H]1O)CCCCO2`, for which the EC50 is > 251 µM and the IC50 was > 251 µM.
With `CNC(=S)/C(C#N)=C(\N)N1CCCC1`, the EC50 is > 200 µM and the IC50 is > 200 µM.
For the compound `Cc1nc(CC#N)n[nH]1`, the EC50 was > 200 µM and the IC50 is > 200 µM.
In the case of `COc1ccc(C(=O)N=C2N(c3ccccc3)C(=Nc3ccccc3)C(=Nc3ccccc3)N2c2ccccc2)cc1`, the EC50 was > 200 µM and the IC50 was found to be 8.32 µM.
Take `Nc1cccc2cn[nH]c12`: the EC50 was > 1480 µM and the IC50 was 229 µM.
Consider `CCOC(CNc1nn2c(C)nnc2s1)OCC`, for which the EC50 is > 200 µM and the IC50 was > 200 µM.
As for `COC(=O)C(=O)Nc1cc2c3c(c1)Oc1cccc4c1C3(C)c1c(cccc1O2)O4`, the EC50 is 28.2 µM and the IC50 amounted to 126 µM.
For `O=C1CSC(c2cccc(Cl)c2)N1c1ccc(-c2ccc(-n3c(-c4ccccc4)nc4ccccc4c3=O)cc2)cc1` (stereo not drawn), in that order: > 200 µM and 21.9 µM.
On the same counts, the results for `[O-][n+]1c(-c2ccccc2)oc2ccccc21` are > 9.55 µM and > 9.55 µM.
Take `Nc1nc2cc([N+](=O)[O-])cnc2s1`: the EC50 was > 479 µM and the IC50 was determined as 437 µM.
Consider `COC(=O)C1Cc2c(C)cccc2C1=O` (stereo not drawn), for which the EC50 was > 200 µM and the IC50 was found to be 110 µM.
For `N#CC1=C(S)N(C2OC(CO)C(O)C(O)C2O)C(c2ccccc2)=CC1c1cccs1` (stereo not drawn), in that order: > 200 µM and 27.5 µM.
For `COC1=C2C=[N+](C)C3C(=C2C=CC1OC)Cc1cc2c(cc13)OCO2` (stereo not drawn), in that order: > 631 µM and 3.63 µM.
For `CC(C)c1ccc(/C=C2\CSCC3=C2NC(=S)NC3c2ccc(C(C)C)cc2)cc1` (stereo not drawn), the EC50 was > 200 µM and the IC50 stood at 42.7 µM.
For `COC(=O)c1nc(-c2ccc3c(n2)C(=O)C(N)=C(OC)C3=O)c(N)c(-c2ccc(OC)c(OC)c2O)c1C`, in that order: > 10 µM and 1.66 µM.
For `Cc1ccc(S(=O)(=O)S/C(=N\c2ccccn2)Nc2ccccn2)cc1`, the EC50 is > 324 µM and the concentration for half-maximal inhibition (IC50) is 83.2 µM.
For `COC1=C(OC)C(=O)c2cc(C)c(=O)c(C)cc2C1=O`, the EC50 was > 13.2 µM and the IC50 was 3.98 µM.
Take `Cn1c(=O)cc(NNc2ccc(Br)cc2)[nH]c1=O`: the EC50 was > 200 µM and the IC50 is 6.17 µM.
On the same counts, the results for `COc1cc(OC)nc(Nc2c(C#N)c3nc4ccccc4n3c3ccccc23)n1` are > 100 µM and > 100 µM.
On the same counts, the results for `CC(C)=CC1CCc2ccccc2N1S(=O)(=O)c1ccc(C)cc1` (stereo not drawn) are > 25.1 µM and 1.32 µM.
Turning to `COc1cc2ccc(CC(=O)O)cc2cc1OC`, the outcome was inactive.
As for `Nc1ncnc2c1ncn2[C@@H]1C[C@H]1CO`, the EC50 is > 200 µM and the IC50 is > 200 µM.
On to `COC1(OC)C2(Cl)C(Cl)=C(Cl)C1(Cl)C1COCC12` (stereo not drawn), for which the result was inactive.
Take `CN1CCc2cc(O)c3cc2C1Cc1ccc(cc1)Oc1cc(ccc1O)CC1c2c(cc4c(c2O3)OCO4)CCN1C` (stereo not drawn): the result was inactive.
Consider `Cc1ccc2c(c1)nc(-c1ccccn1)n2CCc1ccccn1`, for which the EC50 was > 347 µM and the IC50 was 83.2 µM.
On the same counts, the results for `C=C(C)c1nc(Oc2ccccc2)nc(Oc2ccccc2)n1` are > 200 µM and 3.55 µM.
On the same counts, the results for `CNC(=O)C1(C#N)C(c2ccccc2)C(C#N)(C(=O)NC)C1c1ccccc1` (stereo not drawn) are > 200 µM and 166 µM.
On the same counts, the results for `CC(C)(C)OC(=O)[C@@H]1ON2O[C@H](OC3CCCC3(c3ccccc3)c3ccccc3)C[C@H]3OC(=O)[C@@H]1[C@H]32` (stereo partly drawn) are > 200 µM and 31.6 µM.
Turning to `Nc1nc(NCC2(CO)CC(CCc3ccccc3)C2)cc(=O)[nH]1` (stereo not drawn), the EC50 is > 200 µM and the IC50 amounted to 64.6 µM.
For `CN(C)c1ccc(/C=C2\C(=O)Nc3ccccc32)cc1`, in that order: > 10.2 µM and > 10.2 µM.
For `OCC1(CO)CSSC1`, in that order: 132 µM and 1510 µM.
For `CC(C)(C)OC(=O)C1/C(=C/CO)CN1C(=O)OC(C)(C)C` (stereo not drawn), in that order: > 200 µM and 43.7 µM.
With `O=C(O)c1cccc(S(=O)(=O)NN2C(=O)CSC2c2ccccc2)c1` (stereo not drawn), the EC50 is > 200 µM and the IC50 was > 200 µM.
For `C/C(=N\NC(=O)c1ccncc1)c1sc(-n2nc(-c3ccccc3)cc2-c2ccccc2)nc1C`, the EC50 was > 11 µM and the IC50 was > 11 µM.
For the compound `O=C(C=Nc1ccccc1C(=O)[O-])c1ccco1.O=C(C=Nc1ccccc1C(=O)[O-])c1ccco1.[Cu+2]`, the EC50 was > 1.91 µM and the IC50 was > 1.91 µM.
As for `Cc1cccc(C(C)C)c1NC(=O)C(=O)CC(=O)c1c(C)n([O-])c2ccccc2[n+]1=O`, the EC50 is > 85.1 µM and the IC50 turned out to be 17 µM.
For `CC1=C2CC/C(C)=C/CCC3(C)OC3CC/C(C)=C/C2OC1=O` (stereo not drawn), in that order: > 200 µM and > 200 µM.
Take `CCCCNC(=O)Cn1c2ccc(Br)cc2c2nc3ccccc3nc21`: the EC50 was > 100 µM and the IC50 was > 100 µM.
For `N#Cc1cc2c(cc1Cl)Sc1nccn1S2(=O)=O`, the EC50 was > 200 µM and the IC50 was found to be 0.851 µM.
On to `CC1(C)[C@H]2Cc3cc4nc5ccccn5c4cc3[C@@H]1C2`, for which the EC50 was > 200 µM and the IC50 was found to be 24 µM.
On the same counts, the results for `O=C1C=CC(=O)c2c1ccc1c3ccccc3n(-c3ccccc3)c21` are > 22.4 µM and 1.07 µM.
For `NNC(=O)CCCCCCCC(=O)O`, in that order: > 200 µM and > 200 µM.
For `COc1ccc2[nH]c(C)cc2c1CN`, in that order: > 575 µM and 120 µM.
Regarding `CC(=O)Nc1ccccc1S(=O)(=O)c1ccccc1`, the EC50 is 302 µM and the IC50 worked out at 324 µM.
On the same counts, the results for `COc1ccc2c(c1)C(=O)C1CCC(=O)N1C2c1ccc2c(c1)OCO2` (stereo not drawn) are > 200 µM and 3.72 µM.
On the same counts, the results for `O=c1oc2ccccc2c(-c2ccc(O)cc2)c1Oc1ccccc1` are > 200 µM and 20 µM.
On the same counts, the results for `N#Cc1nc(CCc2nc(C#N)c(N)o2)oc1N` are > 200 µM and > 200 µM.
For the compound `CC(=O)OC1[C@@H](OC(C)=O)[C@H](OC(C)=O)C2(CO2)[C@H](OC(C)=O)[C@H]1OC(C)=O` (stereo partly drawn), the EC50 was > 200 µM and the IC50 came out at 12.3 µM.
On the same counts, the results for `CCn1c(-c2ccccc2)cs/c1=N\C(P(=O)(O)O)P(=O)(O)O` are > 200 µM and > 200 µM.
For `O=c1c2cn[nH]c2nc2scc(-c3ccc(Cl)cc3)n12`, in that order: > 200 µM and > 200 µM.
With `COc1c2c(c(OC)c3c(=O)cc(C/C(=N/NC(=O)C[n+]4ccccc4)C(=O)Nc4cc(C)ccc4C)oc13)OCO2`, the EC50 is > 30.9 µM and the IC50 is > 30.9 µM.
For `CC(C)CC(NC(=O)OC(C)(C)C)C(=O)N1CCCC1C(=O)OCc1ccccc1` (stereo not drawn) (Boc-Leu-Pro-OBn; configuration not given here), the EC50 was > 200 µM and the IC50 came out at 52.5 µM.
On the same counts, the results for `CCOC(=O)c1nnsc1NN` are > 200 µM and 166 µM.
For `[C-]#[O+].[C-]#[O+].[C-]#[O+].[C-]#[O+].[C-]#[O+].[Mo+2].[Mo+4].[c-]1[c-][c-][cH-][c-]1.[c-]1[c-][c-][cH-][c-]1.c1ccc([PH+](CC[PH+](c2ccccc2)c2ccccc2)c2ccccc2)cc1`, in that order: > 4.37 µM and 2.69 µM.
On the same counts, the results for `COc1cc(C2=NC(C(C)C)CO2)c(OC)c(OC)c1OC` (stereo not drawn) are > 43.7 µM and > 43.7 µM.
Take `O=[N+]([O-])c1ccc(Sc2c3ccccc3nc3ccccc23)cn1`: the EC50 was > 100 µM and the IC50 is 7.24 µM.
For `CCCCc1ccc(Nc2nc3c(ncn3COCCO)c(=O)[nH]2)cc1`, in that order: > 200 µM and > 200 µM.
For `C=CCOc1ccc(C2(c3ccc(OCC=C)cc3)C(=O)Nc3ccccc32)cc1`, in that order: > 200 µM and 44.7 µM.
For `COc1ccc(C2OCCN2C)cc1` (stereo not drawn), in that order: > 200 µM and > 200 µM.
For the compound `CSc1nc(N)c(NC2OC(CO)C(O)C2O)c(=O)[nH]1` (stereo not drawn), the EC50 is 81.3 µM and > 200 µM; the IC50 is 110 µM and 112 µM.
For `CCOCCN(Cc1ccc(CN(CCOCC)C(=O)C(Cl)Cl)cc1)C(=O)C(Cl)Cl`, the EC50 was > 200 µM and the IC50 was > 200 µM.
In the case of `N#C/C(=C\c1ccc(-c2ccccc2)cc1)C(=O)c1ccccc1`, the EC50 was > 83.2 µM and the IC50 worked out at 27.5 µM.
As to `COC(=O)C(=O)/C(=C\N1C(=O)CC(=O)NC1=S)C(=O)c1ccc([N+](=O)[O-])cc1`, the EC50 is > 200 µM and the IC50 is > 200 µM.
With `CC(C)CN1CC(=O)N2Cc3ccccc3CN2C(=O)C1`, the EC50 was > 200 µM and the IC50 is > 200 µM.
On to `CCOC(=O)c1cn(Cc2ccccc2)c(=O)n1Cc1ccccc1`, for which the EC50 was > 107 µM and the IC50 was 60.3 µM.
For `CCOc1ccccc1Nc1nc(C)c(C(=O)CC(=O)C(=O)Nc2ccccc2)s1`, in that order: > 158 µM and 57.5 µM.
For `Cc1ccc(/C=C(/C(=O)c2ccccc2)c2ccccc2)cc1`, in that order: > 4.9 µM and > 4.9 µM.
Turning to `O=C1C=C(Nc2ccccc2C(=O)CC(=O)C(=O)Nc2cccc(C(F)(F)F)c2)c2ccccc2C1=O`, the EC50 is > 37.2 µM and the IC50 is 6.61 µM.
Consider `COc1ccccc1/C=C1\N=C(C)OC1=O`, for which the result was inactive.
Consider `COc1cc2c(cc1OC)-c1cc3ccc(OC)c(OC)c3c[n+]1CC2`, for which the EC50 is > 324 µM and the IC50 turned out to be 145 µM.
`COc1ccc(N(CC(=O)O)S(=O)(=O)c2ccccc2)cc1`: the result was inactive.

Source of the values: PubChem BioAssay AID179 (DTP/NCI, 2004).
